Patent US20260226031A1, “NOVEL COMPOUNDS” (NRG THERAPEUTICS LTD., priority 2023, published 2026)

Columns and labels:
[1] = test system: mPTP; experiment: mPTP activity (Ca2+ retention) assay in isolated rat liver mitochondria; type: biochemical; settings: for mPTP Rat liver pIC50*: isolated rat liver mitochondria, Fluo5N fluorescence at 10 min after CaCl2 (75 μM) bolus, DMSO 0%, 5 μM cyclosporin A 100% inhibition
From the text: Pharmacological inhibition or modulation of the mPTP can be measured in well characterised ‘Ca^2+ retention’ assays performed in isolated mitochondria. In vitro, isolated mitochondria rapidly sequester exogenous Ca^2+ until the intramitochondrial Ca^2+ concentration reaches the threshold for mPTP activation. Once the pore is activated, mitochondrial integrity is compromised and the stored Ca^2+ is released. The distribution of Ca^2+ between extra- and intra-mitochondrial compartments can be measured in real time with the use of membrane-impermeant Ca^2+ sensitive fluorescent dyes. Depending on the configuration of the assay, inhibition or modulation of the mPTP either delays the opening of the pore or increases the concentration of Ca^2+ required to induce mPTP opening.
MPTP activity was measured in mitochondria freshly isolated from female Sprague Dawley (250 to 300 gram) rat livers using the following method. Cervical dislocation was performed on the rat. The liver was then perfused in-situ with ~40 ml cold Dulbecco's Phosphate Buffered Saline (DPBS) prior to dissection and transferred into 30 ml Isolation Buffer (250 mM Sucrose, 10 mM KCl, 1 mM EGTA, 1 mM EDTA, 25 mM HEPES, adjusted to pH 7.5 with 1M NaOH). Each lobe of the liver was then removed from the buffer, minced using tweezers and a scalpel into ~5 mm pieces then transferred into a 50 ml Potterton dounce homogenization tube on ice containing 30 ml ice-cold centrifugation buffer (300 mM Trehalose, 25 mM HEPES, 1 mM EGTA, 1 mM EDTA, 10 mM KCl, adjusted to pH 7.5 with 1M NaOH and supplemented with 0.1% bovine serum albumin (BSA) and complete protease inhibitor cocktail (one tablet of inhibitor per 50 mls of buffer). Homogenisation was carried out using a Teflon® pestle at 1800 rpm. The slurry was centrifuged at 800 g for 10 min at 4° C., then the supernatant centrifuged at 10,000 g for 10 min. The pellet was washed once with FLIPR assay buffer (75 mM Mannitol, 25 mM Sucrose, 5 mM Potassium Phosphate Monobasic, 20 mM Tris base, 100 mM KCl, 0.1% BSA adjusted to pH 7.4 with 5M HCl) centrifuged again, then resuspended in FLIPR assay buffer to a concentration of 8.8 mg/ml protein.
Tested compounds (10 mM stock in DMSO) were serially diluted in DMSO in half log steps to generate 10 test concentrations (final concentrations in assay 30 μM to 1 nM). An intermediate dilution of 5 μl DMSO samples into 247 μl FLIPR assay buffer was carried out prior to transfer of 5 μl into duplicate wells of a 384 well polypropylene assay plate. Control wells were 0.5% (v/v) DMSO and 5 μM cyclosporin A.
A stock mitochondria/Fluo5N assay solution was prepared in 5.6 ml FLIPR assay buffer (at RT) supplemented with succinate disodium salt (10 mM), rotenone (1 μM), Fluo5N pentapotassium salt (2 μM) and 1 ml mitochondria suspension, then transferred (15 μl) into the assay plate containing test compounds and incubated for 10 min at RT. Assay plates were processed for fluorescence detection on either a FLIPR Tetra (Molecular Devices) or CLARIOstar (BMG) plate reader. For kinetic fluorescence detection on the FLIPR, dye fluorescence was measured every 3 sec for a total of 10 min. After 12 sec, a 2.5 μl bolus of CaCl2 (75 μM) was added from a source plate containing 675 μM CaCl2 in FLIPR assay buffer. Alternatively, the 2.5 μl addition of CaCl2 was performed using a Viaflow 384, plates were incubated at RT for 10 min, and dye fluorescence measured after 10 min on the CLARIOstar plate reader. pIC50 values for tested compounds were calculated using the fluorescence value collected at the 10 min timepoint on either plate reader, with % inhibition calculated using the DMSO control and cyclosporin A values as 0 and 100% respectively.

[2] = test system: mPTP; experiment: mPTP activity (Ca2+ retention) assay in isolated rat brain mitochondria; type: biochemical; settings: for mPTP Rat brain pIC50: isolated rat brain mitochondria, Fluo5N fluorescence at 10 min after Ca2+ (75 μM) bolus
Procedure: MPTP activity was measured in brain mitochondria freshly isolated from female Sprague Dawley (250 to 300 gram) rats. Anaesthetised rats were perfused in-situ with ~40 ml cold Dulbecco's Phosphate Buffered Saline (DPBS), then brains dissected and transferred into 30 ml Isolation Buffer (225 mM mannitol, 75 mM sucrose, 1 mM EGTA, adjusted to pH 7.4 with 1M NaOH). The brain was minced using tweezers and a scalpel into ~5 mm pieces then transferred into a 50 ml Potterton Dounce homogenization tube on ice containing 10 ml ice-cold isolation buffer (as above with addition of Complete Protease inhibitor; 1 tablet per 50 ml buffer). Homogenisation was carried out using a Teflon® pestle at 1800 rpm. The slurry was centrifuged at 2000 g for 10 min at 4° C., then the supernatant centrifuged at 12,000 g for 9 min. The pellet was resuspended with a dounce homogeniser in isolation buffer as above but with the addition of 0.02% digitonin, centrifuged at 12,000 g for 11 min and finally resuspended in 5 ml modified isolation buffer (as above but with EGTA reduced to 0.1 mM).
Test compounds were prepared in 384 well polypropylene assay plates as described above for the liver mitochondria assay. A stock mitochondria/Fluo5N assay solution was prepared in 5.6 ml assay buffer (120 mM mannitol, 40 mM MOPS, 5 mM KH2PO4, 60 mM KCl, 10 mM pyruvate, 2 mM malate, 2 mM MgCl2, 20 μM ADP, 1.26 μM oligomycin A, adjusted to pH 7.4) supplemented with Fluo5N pentapotassium salt (2 μM) and 1 ml mitochondria suspension, then transferred (15 μl) into the assay plate containing test compounds and incubated for 10 min at RT. Assay plates were then transferred to a FLIPR Tetra plate reader (Molecular Devices). Dye fluorescence was then measured every 3 sec for a total of 10 min.

SMILES	mPTP Rat liver pIC50* [1]	mPTP Rat brain pIC50 [2]	activity in the rat liver mitochondria assay (ranking in words) ([1]; among tested Example compounds)	activity in the rat brain mitochondria assay (ranking in words) ([2]; among tested Example compounds)
O=C(c1cccc(=O)[nH]1)N1CC(c2ccccc2)C2(CCC2)C1 (single isomer, unassigned) [Example 26b, 6-(8-phenyl-6-azaspiro[3.4]octane-6-carbonyl)pyridin-2(1H)-one]	<4.52	<4.52	–	–
O=C(c1ccnc(=O)[nH]1)N1CC(c2ccccc2)C2(CCC2)C1 (single isomer, unassigned) [Example 27a, 6-(8-phenyl-6-azaspiro[3.4]octane-6-carbonyl)pyrimidin-2(1H)-one]	6.11	6.34	–	–
O=C(c1ccnc(=O)[nH]1)N1CC(c2ccccc2)C2(CCC2)C1 (single isomer, unassigned) [Example 27b, 6-(8-phenyl-6-azaspiro[3.4]octane-6-carbonyl)pyrimidin-2(1H)-one]	<4.52	<4.52	–	–
COc1ccc(C2CN(C(=O)c3cncc(=O)[nH]3)CC23CCC3)cc1 (single isomer, unassigned) [Example 28a, 6-(8-(4-methoxyphenyl)-6-azaspiro[3.4]octane-6-carbonyl)pyrazin-2(1H)-one]	5.17	5.69	–	–
COc1ccc(C2CN(C(=O)c3cncc(=O)[nH]3)CC23CCC3)cc1 (single isomer, unassigned) [Example 28b, 6-(8-(4-methoxyphenyl)-6-azaspiro[3.4]octane-6-carbonyl)pyrazin-2(1H)-one]	<4.52	<4.52	–	–
O=C(c1cncc(=O)[nH]1)N1CC(c2ccc(Br)cc2)C2(CCC2)C1 (single isomer, unassigned) [Example 29a, 6-(8-(4-bromophenyl)-6-azaspiro[3.4]octane-6-carbonyl)pyrazin-2(1H)-one]	4.59	6.2	–	–
O=C(c1cncc(=O)[nH]1)N1CC(c2ccc(Br)cc2)C2(CCC2)C1 (single isomer, unassigned) [Example 29b, 6-(8-(4-bromophenyl)-6-azaspiro[3.4]octane-6-carbonyl)pyrazin-2(1H)-one]	<4.52	<4.52	–	–
O=C(c1cncc(=O)[nH]1)N1CC(c2ccccc2Cl)C2(CCC2)C1 (single isomer, unassigned) [Example 30a, 6-(8-(2-chlorophenyl)-6-azaspiro[3.4]octane-6-carbonyl)pyrazin-2(1H)-one]	5.28	6.92	–	–
O=C(c1cncc(=O)[nH]1)N1CC(c2ccccc2Cl)C2(CCC2)C1 (single isomer, unassigned) [Example 30b, 6-(8-(2-chlorophenyl)-6-azaspiro[3.4]octane-6-carbonyl)pyrazin-2(1H)-one]	<4.52	<4.52	–	–
O=C(c1cncc(=O)[nH]1)N1CC(c2cccc(Cl)c2)C2(CCC2)C1 (single isomer, unassigned) [Example 31a, 6-(8-(3-chlorophenyl)-6-azaspiro[3.4]octane-6-carbonyl)pyrazin-2(1H)-one]	6.17	7.22	–	–
O=C(c1cncc(=O)[nH]1)N1CC(c2cccc(Cl)c2)C2(CCC2)C1 (single isomer, unassigned) [Example 31b, 6-(8-(3-chlorophenyl)-6-azaspiro[3.4]octane-6-carbonyl)pyrazin-2(1H)-one]	4.58	<4.52	–	–
O=C(c1cncc(=O)[nH]1)N1CC(c2cc(Cl)ccc2F)C2(CCC2)C1 (single isomer, unassigned) [Example 32a]	5.87	7.19	–	–

Now from value to compound, other results behind:

mPTP Rat liver pIC50* [1]	mPTP Rat brain pIC50 [2]	SMILES	activity in the rat liver mitochondria assay (ranking in words) ([1]; among tested Example compounds)	activity in the rat brain mitochondria assay (ranking in words) ([2]; among tested Example compounds)
<4.52	<4.52	O=C(c1cncc(=O)[nH]1)N1CC(c2cc(Cl)ccc2F)C2(CCC2)C1 (single isomer, unassigned) [Example 32b]	–	–
5.77	7.32	O=C(c1cncc(=O)[nH]1)N1CC(c2cccc(Cl)c2F)C2(CCC2)C1 (single isomer, unassigned) [Example 33a, 6-(8-(3-chloro-2-fluorophenyl)-6-azaspiro[3.4]octane-6-carbonyl)pyrazin-2(1H)-one]	–	–
<4.52	<4.52	O=C(c1cncc(=O)[nH]1)N1CC(c2cccc(Cl)c2F)C2(CCC2)C1 (single isomer, unassigned) [Example 33b, 6-(8-(3-chloro-2-fluorophenyl)-6-azaspiro[3.4]octane-6-carbonyl)pyrazin-2(1H)-one]	–	–
5.57	7.37	O=C(c1noc(=O)[nH]1)N1CC(c2ccccc2)C2(CCC2)C1 (single isomer, unassigned) [Example 34a, 3-(8-phenyl-6-azaspiro[3.4]octane-6-carbonyl)-1,2,4-oxadiazol-5(4H)-one]	–	–
<4.52	<4.52	O=C(c1noc(=O)[nH]1)N1CC(c2ccccc2)C2(CCC2)C1 (single isomer, unassigned) [Example 34b, 3-(8-phenyl-6-azaspiro[3.4]octane-6-carbonyl)-1,2,4-oxadiazol-5(4H)-one]	–	–
6.82	7.5	O=C(c1cncc(=O)[nH]1)N1CC(c2ccc(F)cc2)C2(CCC2)C1 (single isomer, unassigned) [Example 35a, 6-(8-(4-fluorophenyl)-6-azaspiro[3.4]octane-6-carbonyl)pyrazin-2(1H)-one]	highest activity	–
5.57	5.79	O=C(c1cncc(=O)[nH]1)N1CC(c2ccc(F)cc2)C2(CCC2)C1 (single isomer, unassigned) [Example 35b, 6-(8-(4-fluorophenyl)-6-azaspiro[3.4]octane-6-carbonyl)pyrazin-2(1H)-one]	–	–
6.65	7.53	O=C(c1cc(O)no1)N1CC(c2ccc(F)cc2)C2(CCC2)C1 (single isomer, unassigned) [Example 36a, (8-(4-fluorophenyl)-6-azaspiro[3.4]octan-6-yl)(3-hydroxyisoxazol-5-yl)methanone]	–	highest activity
